Measured values reported in ChEMBL document CHEMBL3885861, “Open TG-GATES”.

Organism: Rattus norvegicus
Test: Open TG-GATES - Regimen: Single
Format: toxicity, organism-based, Sprague-Dawley
Design: regimen Single, gender Male, age 6 weeks
Details: in vivo, po, 10 mg/kg, route gavage, dose level Middle; for APTT / Bas / Eos / Fbg / Hb / Ht / Lym / MCH / MCHC / MCV / Mono / Neu / PT / Plat / RBC / Ret / WBC: tissue Blood; for KIDNEY_L / KIDNEY_R / KIDNEY_TOTAL: tissue Kidney; for LIVER: tissue Liver; for A/G / ALP / ALT / AST / BUN / CRE / Ca / Cl / DBIL / GLC / IP / K / LDH / Na / PL / RALB / TBIL / TC / TG / TP / gamma-GTP: tissue Plasma

C=CCO [ALLYL ALCOHOL]
TERMINAL_BW (3 h): 220.3 g | APTT (3 h): 20.3 s | Bas (3 h): 0% | Eos (3 h): 1% | Fbg (3 h): 217.8 mg/dL | Hb (3 h): 13.7 g/dL | Ht (3 h): 39.5% | Lym (3 h): 79.4% | MCH (3 h): 21.3 pg | MCHC (3 h): 34.9% | MCV (3 h): 61 fL | Mono (3 h): 2.8% | Neu (3 h): 16.8% | PT (3 h): 12.5 s | Plat (3 h): 140.4 x10_4/uL | RBC (3 h): 648.2 x10_4/ul | Ret (3 h): 6.3% | WBC (3 h): 94.5 x10_2/uL | KIDNEY_L (3 h): 1 g | KIDNEY_R (3 h): 1 g | KIDNEY_TOTAL (3 h): 2 g | LIVER (3 h): 9.9 g | A/G (3 h): 1.5 | ALP (3 h): 1147.4 IU/L | ALT (3 h): 37.6 IU/L | AST (3 h): 69.6 IU/L | BUN (3 h): 10.2 mg/dL | CRE (3 h): 0.4 mg/dL | Ca (3 h): 10.6 mg/dL | Cl (3 h): 100.2 meq/L | DBIL (3 h): 0.3 mg/dL | GLC (3 h): 197.8 mg/dL | IP (3 h): 8.6 mg/dL | K (3 h): 3.7 meq/L | LDH (3 h): 209.2 IU/L | Na (3 h): 139.4 meq/L | PL (3 h): 170.4 mg/dL | RALB (3 h): 3.4 g/dL | TBIL (3 h): 0.4 mg/dL | TC (3 h): 77 mg/dL | TG (3 h): 204.8 mg/dL | TP (3 h): 5.6 g/dL | gamma-GTP (3 h): 1 IU/L | TERMINAL_BW (6 h): 220.1 g | APTT (6 h): 19.1 s | Bas (6 h): 0% | Eos (6 h): 1% | Fbg (6 h): 226.8 mg/dL | Hb (6 h): 13.2 g/dL | Ht (6 h): 38.1% | Lym (6 h): 76% | MCH (6 h): 22 pg | MCHC (6 h): 34.5% | MCV (6 h): 63.7 fL | Mono (6 h): 3.2% | Neu (6 h): 19.2% | PT (6 h): 12.1 s | Plat (6 h): 132 x10_4/uL | RBC (6 h): 598 x10_4/ul | Ret (6 h): 7.1% | WBC (6 h): 99.4 x10_2/uL | KIDNEY_L (6 h): 1 g | KIDNEY_R (6 h): 1 g | KIDNEY_TOTAL (6 h): 1.9 g | LIVER (6 h): 9.8 g | A/G (6 h): 1.4 | ALP (6 h): 1136.8 IU/L | ALT (6 h): 35 IU/L | AST (6 h): 74 IU/L | BUN (6 h): 8 mg/dL | CRE (6 h): 0.4 mg/dL | Ca (6 h): 10.7 mg/dL | Cl (6 h): 102.4 meq/L | DBIL (6 h): 0.2 mg/dL | GLC (6 h): 200.2 mg/dL | IP (6 h): 9.1 mg/dL | K (6 h): 3.8 meq/L | LDH (6 h): 221.4 IU/L | Na (6 h): 141.2 meq/L | PL (6 h): 164.2 mg/dL | RALB (6 h): 3.2 g/dL | TBIL (6 h): 0.2 mg/dL | TC (6 h): 77.8 mg/dL | TG (6 h): 114.4 mg/dL | TP (6 h): 5.5 g/dL | gamma-GTP (6 h): 1.2 IU/L | TERMINAL_BW (9 h): 215.5 g | APTT (9 h): 18 s | Bas (9 h): 0% | Eos (9 h): 1% | Fbg (9 h): 217 mg/dL | Hb (9 h): 13.3 g/dL | Ht (9 h): 38.6% | Lym (9 h): 80.4% | MCH (9 h): 21.5 pg | MCHC (9 h): 34.4% | MCV (9 h): 62.6 fL | Mono (9 h): 2.2% | Neu (9 h): 16.2% | PT (9 h): 12.3 s | Plat (9 h): 125.1 x10_4/uL | RBC (9 h): 617.6 x10_4/ul | Ret (9 h): 6.5% | WBC (9 h): 74.3 x10_2/uL | KIDNEY_L (9 h): 0.9 g | KIDNEY_R (9 h): 0.9 g | KIDNEY_TOTAL (9 h): 1.9 g | LIVER (9 h): 8.9 g | A/G (9 h): 1.5 | ALP (9 h): 1058 IU/L | ALT (9 h): 29 IU/L | AST (9 h): 62 IU/L | BUN (9 h): 9.2 mg/dL | CRE (9 h): 0.3 mg/dL | Ca (9 h): 10.5 mg/dL | Cl (9 h): 101.8 meq/L | DBIL (9 h): 0.07 mg/dL | GLC (9 h): 203.8 mg/dL | IP (9 h): 10.3 mg/dL | K (9 h): 3.8 meq/L | LDH (9 h): 163.4 IU/L | Na (9 h): 140 meq/L | PL (9 h): 132.6 mg/dL | RALB (9 h): 3.3 g/dL | TBIL (9 h): 0.1 mg/dL | TC (9 h): 67 mg/dL | TG (9 h): 60.6 mg/dL | TP (9 h): 5.5 g/dL | gamma-GTP (9 h): 0.8 IU/L | TERMINAL_BW (24 h): 231.2 g | APTT (24 h): 17.9 s | Bas (24 h): 0% | Eos (24 h): 1% | Fbg (24 h): 232.2 mg/dL | Hb (24 h): 13.5 g/dL | Ht (24 h): 39.7% | Lym (24 h): 79.2% | MCH (24 h): 20.8 pg | MCHC (24 h): 34% | MCV (24 h): 61 fL | Mono (24 h): 2.8% | Neu (24 h): 16.6% | PT (24 h): 11.9 s | Plat (24 h): 127.4 x10_4/uL | RBC (24 h): 650.8 x10_4/ul | Ret (24 h): 6% | WBC (24 h): 93.9 x10_2/uL | KIDNEY_L (24 h): 1 g | KIDNEY_R (24 h): 1 g | KIDNEY_TOTAL (24 h): 1.9 g | LIVER (24 h): 11.1 g | A/G (24 h): 1.3 | ALP (24 h): 1042.2 IU/L | ALT (24 h): 38.2 IU/L | AST (24 h): 65 IU/L | BUN (24 h): 15 mg/dL | CRE (24 h): 0.4 mg/dL | Ca (24 h): 10.8 mg/dL | Cl (24 h): 102.4 meq/L | DBIL (24 h): 0.08 mg/dL | GLC (24 h): 203.6 mg/dL | IP (24 h): 7.2 mg/dL | K (24 h): 3.8 meq/L | LDH (24 h): 200.4 IU/L | Na (24 h): 140.2 meq/L | PL (24 h): 152.6 mg/dL | RALB (24 h): 3.1 g/dL | TBIL (24 h): 0.1 mg/dL | TC (24 h): 79.4 mg/dL | TG (24 h): 99.4 mg/dL | TP (24 h): 5.5 g/dL | gamma-GTP (24 h): 1 IU/L
